Source: PubChem BioAssay (NCI)
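Exposure lasted 48 hours, with cells grown in 96-well plates and compounds tested at five concentrations. TGI is the concentration that stops growth completely.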

Assays:
Assay in all cases: NCI-60 cell line screen, 48 h
SK-MEL-2 melanoma = tested on: SK-MEL-2 melanoma
SF-539 CNS = tested on: SF-539 CNS
CCRF-CEM leukemia = tested on: CCRF-CEM leukemia
MDA-N = tested on: MDA-N
HOP-62 NSCLC = tested on: HOP-62 NSCLC
SF-295 CNS = tested on: SF-295 CNS
786-0 renal = tested on: 786-0 renal
ACHN renal = tested on: ACHN renal
UACC-62 melanoma = tested on: UACC-62 melanoma
SR leukemia = tested on: SR leukemia
HS 578T breast = tested on: HS 578T breast

| Compound | TGI (SK-MEL-2 melanoma) [µM] | TGI (SF-539 CNS) [µM] | TGI (CCRF-CEM leukemia) [µM] | TGI (MDA-N) [µM] | TGI (HOP-62 NSCLC) [µM] | TGI (SF-295 CNS) [µM] | TGI (786-0 renal) [µM] | TGI (ACHN renal) [µM] | TGI (UACC-62 melanoma) [µM] | TGI (SR leukemia) [µM] | TGI (HS 578T breast) [µM] |
| --- | --- | --- | --- | --- | --- | --- | --- | --- | --- | --- | --- |
| CCn1c(=O)c2nc(SC)sc2n(-c2ccccc2)c1=S | > 100 | > 100 | > 100 | > 100 | > 100 | > 100 | > 100 | > 100 | 97.6 | > 100 | > 100 |
| COc1cc2c(cc1C)NC(=O)/C2=C/c1c(Cl)[nH]c2ccccc12 | 8.56 | 4.15 | 17.2 | 3.82 | 14.6 | 5.52 | 20 | 22.4 | 14.4 | 23.1 | 28.7 |
| CCc1nnc2sc(-c3ccc(-c4ccccc4[N+](=O)[O-])o3)nn12 | 95.7 | 89 | > 100 | 46.1 | > 100 | > 100 | > 100 | > 100 | > 100 | 72.6 | > 100 |
| C=CCN(C(C)=O)c1cc(OCc2ccccc2)c2c(c1)c(C)cn2S(=O)(=O)c1ccccc1 | 12.3 | > 100 | > 27.1 | > 74.7 | > 100 | > 100 | > 100 | 51.4 | > 76.9 | 4.21 | > 70.4 |
| O=c1[nH]nc(-c2cccc([N+](=O)[O-])c2)[nH]1 | > 100 | > 100 | > 100 | > 100 | > 100 | > 100 | > 100 | > 100 | > 100 | > 100 | > 100 |
| CC(C)C1OC(=O)C(Cc2ccccc2)N(C)C(=O)C(C(C)C)OC(=O)C(Cc2ccccc2)N(C)C(=O)C(C(C)C)OC(=O)C(Cc2ccccc2)N(C)C1=O (centres undefined) | 1.36 | 3.47 | 1.59 | 2.1 | 2.19 | 1.79 | 2.5 | 1.64 | 1.98 | 4.06 | 4.9 |
| CCC(C)C(NC(=O)c1cccc2c(=O)c3ccccc3[nH]c12)C(=O)O (centres undefined) | > 100 |  | > 100 | > 100 | > 100 | > 100 | > 100 | > 100 | > 100 | > 100 | > 100 |
| CC(C)C(Sc1nc(N)nc2nc[nH]c12)C(=O)O (centres undefined) | > 100 |  | > 100 | > 100 | > 100 | > 100 | > 100 | > 100 | > 100 | > 100 | > 100 |
| NC1CC(=O)c2c(I)sc(I)c21 (centres undefined) | 36.2 | 44.8 | > 34.3 | 44.7 | 40.1 | 39.8 | > 53.4 | 42.1 | 32.6 | 48.4 | 75 |
| O=C1c2ccccc2CC12Cc1ccc3c(c1C2=O)CCCC3 (centres undefined) | > 100 | > 100 | > 100 | > 100 | > 100 | > 100 | > 100 | > 100 | > 100 | 6.56 | 48.3 |
| c1cc(CSP234N5CCN2CCN3CCN4CC5)cc(CSP234N5CCN2CCN3CCN4CC5)c1 | 45.1 | 55.5 | 62.3 | 79.9 | > 100 | 46.2 | > 100 | > 100 | 36.6 | 28.2 | 69.3 |
